# Measured values from paper PMC11612144, “Deep quantification of substrate turnover defines protease subsite cooperativity” (Molecular Systems Biology, 2024).
# No end group written: not given here.
# Columns and labels:
# [1] = target: C. elegans DPF-3 (DPP8/9-orthologue), full-length, recombinant (C. elegans); test: cryo-EM structure; single particle cryo-EM of full-length DPF-3 alone (apo), ~0.3 mg/ml and 2.5% glycerol, grids blotted at 4 °C; homodimer
# hDPP4 = target: T1, hDPP4 (Homo sapiens, UniProt P27487); test: In vitro protease assay by mass spectrometry: cleavage of synthetic GLP-1 N-terminal peptides by hDPP4 over time; assay type: in vitro ADME; details: hDPP4 1 µg in 100 µl, peptide 1 pmol/µl, 21 °C, LC-MS, Fig. 4A; for product formation upon digestion with hDPP4 (in words): 30-120 min, three technical replicates
# T1 construct: purchased Abcam ab79138
# T1 sequence (P27487 whole entry): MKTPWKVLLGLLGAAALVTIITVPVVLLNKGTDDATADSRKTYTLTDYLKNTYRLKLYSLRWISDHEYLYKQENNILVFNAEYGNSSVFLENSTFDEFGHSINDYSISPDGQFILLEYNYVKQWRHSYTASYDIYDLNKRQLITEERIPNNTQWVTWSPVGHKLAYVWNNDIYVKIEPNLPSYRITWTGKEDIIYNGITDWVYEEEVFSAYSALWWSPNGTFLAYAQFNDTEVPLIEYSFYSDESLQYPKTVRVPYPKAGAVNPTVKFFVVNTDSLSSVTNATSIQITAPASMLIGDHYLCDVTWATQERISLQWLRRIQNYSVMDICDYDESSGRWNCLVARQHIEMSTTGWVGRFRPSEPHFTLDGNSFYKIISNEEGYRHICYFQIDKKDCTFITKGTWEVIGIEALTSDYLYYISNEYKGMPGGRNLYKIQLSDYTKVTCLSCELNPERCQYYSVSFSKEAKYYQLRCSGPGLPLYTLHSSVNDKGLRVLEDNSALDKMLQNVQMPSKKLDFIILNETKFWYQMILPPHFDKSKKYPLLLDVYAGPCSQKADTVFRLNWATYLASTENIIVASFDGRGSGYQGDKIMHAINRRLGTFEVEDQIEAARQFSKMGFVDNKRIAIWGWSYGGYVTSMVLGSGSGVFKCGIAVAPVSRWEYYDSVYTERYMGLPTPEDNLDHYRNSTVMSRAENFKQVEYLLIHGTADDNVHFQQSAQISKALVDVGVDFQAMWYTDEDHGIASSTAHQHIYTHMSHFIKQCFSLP
# Procedure: Synthetic peptides representing either wild-type or mutated GLP-1 were purchased from Thermo Fisher Scientific and their cleavage by DPP4 was measured over time. Briefly, the lyophilized peptides were dissolved in TBS buffer supplemented with 2 mM TCEP to obtain a stock solution with a final concentration of 0.1 nmol/µl. 1ug of DPP4 and each peptide at a final concentration of 1 pmol/µl were used in reactions at a final volume of 100 µl. To distinguish the products, the four peptides were pooled into two groups. One group contained GLP-1 wt (HAE ([…])) & GLP-1 H1D, E3P (DAP ([…])) and the other group GLP-1 H1D (DAE ([…])) & GLP-1 E3P (HAP ([…])). The assay was performed at 21 °C, aliquots (20 µl) were taken out at the indicated times and mixed with 180 µl of 0.1% trifluoroacetic acid, 2 mM TCEP, 2% acetonitrile in water to stop the reaction.
# The peptides were analyzed by capillary liquid chromatography tandem mass spectrometry (LC-MS) using an Orbitrap Fusion LUMOS, a VanquishNeo-nLC, and a 75umx15cm EasyC18 column kept at 45 °C and mounted on a easy source (Thermo Fisher Scientific). Peptides were loaded on a 0.3 × 5 mm C18 trap using a back flash method for elution. Peptides were separated with a gradient of 0–0.2 min 2–6%B in A, 0.2–4.2 min 6–21%, 4.2–6.2 min 21–30%, 6.2–6.7 min 30–36%, 6.7–7.2 min 36–45%, 7.2–7.5 min 45%-100%, 7.5-12 min 100%. A: 0.1% FA in H2O; B: 0.1% FA, 80% MeCN in H2O, at room temperature and the flow rate during the gradient was 200 nl/min and for the last 4.4 min 350 nl/min. The data were acquired using 120,000 resolution for the peptide measurements in the Orbitrap and a top T (1.5 s) method with HCD fragmentation for each precursor and fragment measurement in the ion trap following the manufacturer guidelines (Thermo Scientific).
# GLP-1 receptor = details: compared with GLP-1(7-37); ref Mentlein et al, 1993; Muller et al, 2019; cited from earlier work
# Text: To achieve clinical utility, GLP ...
product formation upon digestion with hDPP4 (in words) (hDPP4),Substance,further results
,"C. elegans DPF-3 (DPP8/9-orthologue), full-length, recombinant (enzyme)",stoichiometry N [1]: 2
,"HAEGTFTSDVSR [HAE, reference compound]",time within which product formation was essentially complete (hDPP4): ≤ 30 min
completely abrogated product formation,HAPGTFTSDVSR [HAP],
completely abrogated product formation,DAPGTFTSDVSR [DAP],
,"GLP-1(9-37): DPP4-processed GLP-1 peptide (EGTFTSDVSSYLEGQAAKEFIAWLVKGRG; Glucagon-like peptide 1; UniProt P01275 100-128, looked up, fragment)",affinity to its receptor (in words) (GLP-1 receptor): reduced affinity

Substance,product formation upon digestion with hDPP4 (in words) (hDPP4),further results
DAEGTFTSDVSR [DAE],greatly decreased product levels at all time points and continued product accumulation over 120 min,
